Results reported in US20050267156A1, “Broadspectrum 2-amino-benzothiazole sulfonamide hiv protease inhibitors” (Tibotec Pharmaceuticals Ltd., priority 2002, published 2005).
Where two headings read alike, the source gives them in different places.

Key:
[1] = system: HIV-1 strain LAI; assay: Cellular anti-HIV assay (MT4/MTT), wild type; assay type: cell-based; conditions: wild type HIV-1 strain LAI, MT4 cells; for EC50: Human immunodeficiency virus 1, read-out: WT (pEC50) (converted)
Experimental: The compounds of the present invention were examined for anti-viral activity in a cellular assay. […] The cellular assay was performed according to the following procedure. HIV- or mock-infected MT4 cells were incubated for five days in the presence of various concentrations of the inhibitor. […] Cell viability is measured by measuring the concentration of MTT, a yellow, water soluble tetrazolium dye that is converted to a purple, water insoluble formazan in the mitochondria of living cells only. Upon solubilization of the resulting formazan crystals with isopropanol, the absorbance of the solution is monitored at 540 nm. The values correlate directly to the number of living cells remaining in the culture at the completion of the five-day incubation. The inhibitory activity of the compound was monitored on the virus-infected cells and was expressed as EC50 and EC90. These values represent the amount of the compound required to protect 50% and 90%, respectively, of the cells from the cytopathogenic effect of the virus. […] The selectivity index (SI) (ratio CC50/EC50) is an indication of the selectivity of the anti-HIV activity of the inhibitor. Wherever results are reported as e.g. pEC50 or pCC50 values, the result is expressed as the negative logarithm of the result expressed as EC50 or CC50 respectively.

[2] = system: mutant HIV strain F; assay: microbe, parasite or virus in culture; assay type: cell-based; conditions: for fold resistance Strain F: FR=EC50 (mutant strain)/EC50 (HIV-1 strain LAI); for pEC50 Strain F: mutant HIV strain F, MT4 cells; for EC50: Human immunodeficiency virus 1, MT4, read-out: pEC50 Strain F, mutant HIV strain F, MT4 cells (converted)
Experimental: (§1) HIV- or mock-infected MT4 cells were incubated for five days in the presence of various concentrations of the inhibitor. […] Cell viability is measured by measuring the concentration of MTT, a yellow, water soluble tetrazolium dye that is converted to a purple, water insoluble formazan in the mitochondria of living cells only. Upon solubilization of the resulting formazan crystals with isopropanol, the absorbance of the solution is monitored at 540 nm. The values correlate directly to the number of living cells remaining in the culture at the completion of the five-day incubation. The inhibitory activity of the compound was monitored on the virus-infected cells and was expressed as EC50 and EC90. These values represent the amount of the compound required to protect 50% and 90%, respectively, of the cells from the cytopathogenic effect of the virus. […] The selectivity index (SI) (ratio CC50/EC50) is an indication of the selectivity of the anti-HIV activity of the inhibitor. Wherever results are reported as e.g. pEC50 or pCC50 values, the result is expressed as the negative logarithm of the result expressed as EC50 or CC50 respectively.

[3] = system: mutant HIV strain C; assay: microbe, parasite or virus in culture; assay type: cell-based; conditions: for fold resistance Strain C: FR=EC50 (mutant strain)/EC50 (HIV-1 strain LAI); for pEC50 Strain C: mutant HIV strain C, MT4 cells; for EC50: Human immunodeficiency virus 1, MT4, read-out: pEC50 Strain C, mutant HIV strain C, MT4 cells (converted)
Experimental: as §1

[4] = system: mutant HIV strain E; assay: microbe, parasite or virus in culture; assay type: cell-based; conditions: for fold resistance Strain E: FR=EC50 (mutant strain)/EC50 (HIV-1 strain LAI); for EC50: Human immunodeficiency virus 1, MT4, read-out: pEC50 Strain E, mutant HIV strain E, MT4 cells (converted)
Experimental: as §1

[5] = system: mutant HIV strain B; assay: microbe, parasite or virus in culture; assay type: cell-based; conditions: for fold resistance Strain B: FR=EC50 (mutant strain)/EC50 (HIV-1 strain LAI); for pEC50 Strain B: mutant HIV strain B, MT4 cells; for EC50: Human immunodeficiency virus 1, MT4, read-out: pEC50 Strain B, mutant HIV strain B, MT4 cells (converted)
Experimental: as §1

[6] = system: mutant HIV strain A; assay: microbe, parasite or virus in culture; assay type: cell-based; conditions: for fold resistance Strain A: FR=EC50 (mutant strain)/EC50 (HIV-1 strain LAI); for pEC50 Strain A: mutant HIV strain A, MT4 cells; for EC50: Human immunodeficiency virus 1, MT4, read-out: pEC50 Strain A, mutant HIV strain A, MT4 cells (converted)
Experimental: as §1

[7] = system: mutant HIV strain D; assay: microbe, parasite or virus in culture; assay type: cell-based; conditions: for fold resistance Strain D: FR=EC50 (mutant strain)/EC50 (HIV-1 strain LAI); for EC50: Human immunodeficiency virus 1, MT4, read-out: pEC50 Strain D, mutant HIV strain D, MT4 cells (converted)
Experimental: as §1

[8] = system: mock-infected MT4 cells; assay: Toxicity on mock-infected cells (MTT); assay type: cell-based
Experimental: (§2) HIV- or mock-infected MT4 cells were incubated for five days in the presence of various concentrations of the inhibitor. At the end of the incubation period, the replicating virus in the control cultures has killed all HIV-infected cells in the absence of any inhibitor. Cell viability is measured by measuring the concentration of MTT, a yellow, water soluble tetrazolium dye that is converted to a purple, water insoluble formazan in the mitochondria of living cells only. Upon solubilization of the resulting formazan crystals with isopropanol, the absorbance of the solution is monitored at 540 nm. The values correlate directly to the number of living cells remaining in the culture at the completion of the five-day incubation. The inhibitory activity of the compound was monitored on the virus-infected cells and was expressed as EC50 and EC90. These values represent the amount of the compound required to protect 50% and 90%, respectively, of the cells from the cytopathogenic effect of the virus. […] The selectivity index (SI) (ratio CC50/EC50) is an indication of the selectivity of the anti-HIV activity of the inhibitor. Wherever results are reported as e.g. pEC50 or pCC50 values, the result is expressed as the negative logarithm of the result expressed as EC50 or CC50 respectively.

[9] = Toxicity on mock-infected cells (MTT); assay type: cell-based; conditions: human
Experimental: as §2

[10] = Pharmacokinetics in rats; assay type: in vivo, Whistar rats; conditions: Whistar, rat, blood, 10 mpk, read-out: Cmax
Experimental: The pharmacokinetic properties of some compounds of formula (I) were tested on rats and dogs. The compounds were evaluated in Whistar rats, source Iffa Credo, weighing approximately 350 g. Before dosing the animals were fasted overnight (approximately 12 h fasting period). The compounds were dissolved in DMSO or PEG 400. The results represented in the table concern the results from the oral or intra-peritoneal dosing of the compounds. Blood was sampled at 30 min, 1 h, 2 h, 3 h, no pre-dose sample was taken. The amount of the compound in the biological sample was determined using LC-MS. In the table below “or” means oral dosing, “ip” means intraperitoneal dosing, “mpk” means mg per kilogram.

[11] = ip, ip, DMSO, results normalized to 10 mpk
[12] = po, or, PEG400, results normalized to 10 mpk

What does the source list for `CNc1nc2ccc(S(=O)(=O)N(CC(C)C)C[C@@H](O)[C@H](Cc3ccccc3)NC(=O)O[C@H]3CCOC3)cc2s1.O=C(O)C(F)(F)F` [Compound 22, {(1S,2R)-1-benzyl-2-hydroxy-3-[isobutyl-(2-methylamino-benzothiazole-6-sulfonyl)-amino]-propyl}-carbamic acid(S)(tetrahydro-furan-3-yl)ester trifluoroacetate]?
WT (pEC50) [1]: 8.84; fold resistance Strain F [2]: 549.5; pEC50 Strain F [2]: 6.1; fold resistance Strain C [3]: 4.5; pEC50 Strain C [3]: 8.19; fold resistance Strain E [4]: 3.0; pEC50 Strain E ([4]; mutant HIV strain E, MT4 cells): 8.36; fold resistance Strain B [5]: 10.2; pEC50 Strain B [5]: 7.83; fold resistance Strain A [6]: 81.3; pEC50 Strain A [6]: 6.93; fold resistance Strain D [7]: 11.5; pEC50 Strain D ([7]; mutant HIV strain D, MT4 cells): 7.78; Tox (pCC50) [8]: <4

Which “WT (pEC50)” value [1] does the source give for `CNc1nc2ccc(S(=O)(=O)N(CC(C)C)C[C@@H](O)[C@H](Cc3ccccc3)NC(=O)O[C@H]3CO[C@H]4OCC[C@H]43)cc2s1` [Compound 5, {(1S,2R)-1-benzyl-2-hydroxy-3-[isobutyl-(2-methylamino-benzothiazole-6-sulfonyl)-amino]-propyl}-carbamic acid(3R,3aS,6aR)-(hexahydro-furo[2,3-b]furan-3-yl)ester] here?
The value was 9.26.

And the “fold resistance Strain F” value [2]?
Its value is 3.5.

What about the “pEC50 Strain F” value [2] of the same compound?
The value was 8.71.

And the “fold resistance Strain C” value [3]?
Its value is 0.4.

And the “pEC50 Strain C” value [3]?
Its value is 9.71.

What about the “fold resistance Strain B” value [5] of the same compound?
The value was 0.5.

And the “pEC50 Strain B” value [5]?
The value was 9.57.

And the “fold resistance Strain A” value [6]?
The value was 0.8.

And the “pEC50 Strain A” value [6]?
Its value is 9.37.

And the “Tox (pCC50)” value [8]?
Its value is 4.15.

Which EC50 [1] does the source give for `CNc1nc2ccc(S(=O)(=O)N(CC(C)C)C[C@@H](O)[C@H](Cc3ccccc3)NC(=O)OC3COC4OCCC34)cc2s1` (stereo partly drawn) [Compound 4, {(1S,2R)-1-benzyl-2-hydroxy-3-[isobutyl-(2-methylamino-benzothiazole-6-sulfonyl)-amino]-propyl}-carbamic acid hexahydro-furo[2,3-b]furan-3-yl ester] here?
The EC50 was 0.000457 µM.

What about the “fold resistance Strain F” value [2] of the same compound?
Its value is 19.1.

And the EC50 [2]?
Its EC50 is 0.00871 µM.

And the “fold resistance Strain C” value [3]?
Its value is 2.6.

And the EC50 [3]?
The EC50 was 0.00117 µM.

And the “fold resistance Strain E” value [4]?
The value was 2.8.

And the EC50 [4]?
Its EC50 is 0.00129 µM.

What about the “fold resistance Strain B” value [5] of the same compound?
Its value is 2.6.

And the EC50 [5]?
The EC50 was 0.00117 µM.

What about the “fold resistance Strain A” value [6] of the same compound?
Its value is 7.9.

And the EC50 [6]?
Its EC50 is 0.00363 µM.

And the “fold resistance Strain D” value [7]?
The value was 2.6.

What about the EC50 [7] of the same compound?
The EC50 was 0.00117 µM.

And the CC50 at 5 days [9]?
Its CC50 at 5 days is over 10 µM.

What about the Cmax [10, 11] of the same compound?
The Cmax was 1.67 µg/mL.

And the Cmax ([10]; po, or, DMSO, results normalized to 10 mpk)?
The Cmax was 0.348 µg/mL.

What about the Cmax [10, 12] of the same compound?
Its Cmax is 0.225 µg/mL.

Which EC50 [1] does the source give for `CNc1nc2ccc(S(=O)(=O)N(CC(C)C)C[C@@H](O)[C@H](Cc3ccccc3)NC(=O)COc3c(C)cc(CN)cc3C)cc2s1` [Compound 25, 2-(4-aminomethyl-2,6-dimethyl-phenoxy)-N-{(1S,2R)-1-benzyl-2-hydroxy-3-[isobutyl-(2-methylamino-benzothiazole-6-sulfonyl)-amino]-propyl}-acetamide] here?
The EC50 was 0.00407 µM.

And the “fold resistance Strain F” value [2]?
The value was 117.5.

And the EC50 [2]?
The EC50 was 0.479 µM.

And the “fold resistance Strain C” value [3]?
The value was 4.4.

And the EC50 [3]?
Its EC50 is 0.0178 µM.

And the “fold resistance Strain E” value [4]?
Its value is 4.3.

And the EC50 [4]?
The EC50 was 0.0174 µM.

What about the “fold resistance Strain B” value [5] of the same compound?
Its value is 4.9.

And the EC50 [5]?
The EC50 was 0.02 µM.

And the “fold resistance Strain A” value [6]?
The value was 10.7.

What about the EC50 [6] of the same compound?
The EC50 was 0.0437 µM.

What about the “fold resistance Strain D” value [7] of the same compound?
Its value is 10.0.

And the EC50 [7]?
The EC50 was 0.0407 µM.

And the CC50 at 5 days [9]?
Its CC50 at 5 days is 14.1 µM.

And the Cmax [10, 11]?
The Cmax was 0.453 µg/mL.

For `CNc1nc2ccc(S(=O)(=O)N(CC(C)C)C[C@@H](O)[C@H](Cc3ccccc3)NC(=O)COc3c(C)cccc3C)cc2s1` [Compound 15, N-{(1S,2R)-1-benzyl-2-hydroxy-3-[isobutyl-(2-methylamino-benzothiazole-6-sulfonyl)-amino]-propyl}-2-(2,6-dimethyl-phenoxy)-acetamide], which EC50 [1] is on record?
Its EC50 is 0.0112 µM.

What about the “fold resistance Strain F” value [2] of the same compound?
Its value is 20.4.

And the EC50 [2]?
Its EC50 is 0.229 µM.

And the “fold resistance Strain C” value [3]?
Its value is 3.5.

And the EC50 [3]?
The EC50 was 0.0398 µM.

And the “fold resistance Strain E” value [4]?
The value was 3.2.

And the EC50 [4]?
The EC50 was 0.0363 µM.

And the “fold resistance Strain B” value [5]?
The value was 2.6.

What about the EC50 [5] of the same compound?
Its EC50 is 0.0288 µM.

What about the “fold resistance Strain A” value [6] of the same compound?
The value was 4.6.

What about the EC50 [6] of the same compound?
The EC50 was 0.0513 µM.

What about the “fold resistance Strain D” value [7] of the same compound?
Its value is 4.5.

What about the EC50 [7] of the same compound?
Its EC50 is 0.0501 µM.

What about the CC50 at 5 days [9] of the same compound?
Its CC50 at 5 days is 91.2 µM.

What about the Cmax [10, 11] of the same compound?
Its Cmax is 0.086 µg/mL.

And the Cmax [10, 12]?
Its Cmax is 0.01 µg/mL.
